Data: US20040253292A1, “MR-signal emitting coatings” (Wisconsin Alumni Research Foundation, priority 2003, published 2004)

Assay: Diffusion of a fluorescent probe in swollen gelatin gel (FRAP)
Type: physicochemical
Conditions: coating thickness 60 μm; diffusion coefficient 9×10^ m^2s^−1
From the text: To assess the stability of DTPA[Gd(III)] in the gelatin coating, the diffusion of a fluorescence probe in gelatin was studied by the technique of fluorescence recovery after photobleaching (FRAP). The instrument and data analysis scheme are described in Kim, S. H. and Yu, H., J. Phys. Chem. 1992, 96, 4034, which is hereby fully incorporated by reference. Fluorescein was used as the fluorescence probe due, in part, to its molecular size being roughly the same as that of DTPA[Gd(III)].
The focus of the study was to examine the possible retardation effects of gelatin concentration and cross-link density on the diffusion, which was determined at room temperature, i.e., below the gel point of gelatin. The diffusion of fluorescein probe slows down with the increase of gelatin concentration. The diffusion coefficient decreases from 1.5×10^−10 to 9×10^−12 m^2s^−1 when the concentration of gelatin increases from 9% to 40%. […] Accordingly, the probe diffusion is more likely controlled by the concentration of gelatin rather than the cross-link density. On the other hand, the cross-link density may determine the swelling ratio of gelatin, i.e., the concentration of gelatin in aqueous solution. […]

In the case of `O=C(O)CN(CCN(CC(=O)O)CC(=O)O)CCN(CC(=O)O)CC(=O)O` [DTPA, diethylenetriaminepentaacetic acid], the “time to diffuse out of the gelatin coating” value is reported as “about 67 seconds”.
